# Several values for one entry are separate records, joined by “and”; a condition that tells them apart may be missing. Identical values can stand only once. Like-named read-outs stand apart in the source and are kept apart here.
# What was measured:
# eIF1A-RPS10 interaction = target: T1, eIF1A-RPS10 interaction (Homo sapiens, UniProt P46783+P47813); assay: Split-Renilla luciferase eIF1A-RPS10 interaction screen, dose-response; format: biochemical; details: summary table; read-out: IC50 concentration (µM), IC50 screen
# T1 construct: made in house; host or cells: E. coli BL21 (PRSFduet); unpurified lysate supernatant
# How it was run: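 Expression at 16 °C overnight after 0.5 mM IPTG induction; sonication and centrifugation in TKE buffer; lysate supernatant checked for Renilla activity; compound testing against the eIF1A–RPS10 split-luciferase pair, including fragment-only controls.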
# eIF1A = target: T2, eIF1A (Homo sapiens, UniProt P47813); format: binding; details: for fluorescence ratio, eIF1A: background-corrected, relative to DMSO or lowest 1Ai concentration, replicate columns
# T2 construct: His-bdSUMO (cleaved yes); made in house; host or cells: E. coli BL-21
# [1] = tested on: CUG/GUG vs AUG start codon luciferase reporters in HEK293T cells; assay: Near-cognate AUG starting codon fidelity reporter assay (GUG, CUG vs AUG); format: cell-based; details: for CUG vs AUG (%): CUG start codon reporter relative to AUG reporter (AUG = 100); for CUG vs AUG (%) / GUG vs AUG (%): compound at 20uM (summary head), single-experiment calculation; for GUG vs AUG (%): GUG start codon reporter relative to AUG reporter (AUG = 100); for average CUG and GUG / average CUG and GUG relative to DMSO / CUG Average / GUG Average: NUG experiment; for CUG Average: CUG vs AUG reporter; for GUG Average: GUG vs AUG reporter; for NUG (Final data, Fig. 1E): average CUG and GUG relative to DMSO, 20 µM overnight; for GUG vs AUG data (%): individual repeat; for GUG vs AUG (%) Average: summary average of repeats, DMSO control average […]
# [2] = tested on: IRF7 5'UTR firefly luciferase reporter in HEK293T cells; details: for Reference vs IRF7 (Final data, Fig. 1E): 1/Result, relative to DMSO; for LONG (summary - All), normalized to DMSO / SHORT (summary - All), normalized to DMSO: individual replicates, outliers excluded, DMSO = 1; for SHORT (summary - All), normalized to DMSO: Short reporter; for average ( long vs short ratio): summary - All; for Long 5'UTR reporter luciferase activity, normalized to DMSO (=1), single replicates: compound at 20 µM, left data block (Long), source data of Fig 1C;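 on all read-outs here: luciferase signal corrected by a co-transfected GFP reporter for transfection efficiency, read after overnight compound exposure, with Long and Short reporters differing in 5'UTR length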
# Procedure: For the effect on ribosomal scanning, we used two firefly luciferase reporter genes that differ in their 5'UTR length (Fig. 1C). […] Cells were transfected with these reporters along with a GFP reporter gene used to normalize transfection efficiency. After an overnight 1Ai or DMSO (vehicle control) exposure, luciferase and GFP expression were measured, and normalized activity was determined.
# For the reference vs IRF7 5'UTR luciferase reporter assay, HEK239T cells in a 12-well plate were transfected with the previously described IRF7 5'UTR or reference firefly luciferase reported genes (Sehrawat et al, [2019]) (100 ng/well) together with GFP (20 ng/well) that served as an internal control by CaCl2 transfection. After 6 h, half of the growth medium was replaced with a medium containing the different compounds, reaching a final concentration of 20 µM. Twenty-four hours after transfection, transfection efficiency was evaluated using GFP fluorescence intensity (Cytation 5, ex/em: 470/525). Cells were harvested in 50 µL Reported lysis buffer (RLB) and put on a shaker for 10 min. From each well 5 µL were taken in duplicates and tested by luminometer.
# NSP1 = NSP1 (Severe acute respiratory syndrome coronavirus 2, UniProt P0DTD1)
# [3] = eIF1A, from the titration data, read-out: IC50 (eIF1A titration block)
# [4] = summary table, fluorescence binding assay, read-out: IC50 concentration (µM), WT eIF1A
# T1 sequence (P47813 whole entry, one chain of several): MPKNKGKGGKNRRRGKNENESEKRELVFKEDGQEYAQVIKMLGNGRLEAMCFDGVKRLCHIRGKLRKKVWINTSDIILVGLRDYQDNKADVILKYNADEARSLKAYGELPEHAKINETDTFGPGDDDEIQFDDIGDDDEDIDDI
# T2 sequence (P47813 whole entry): as the sequence (P47813 whole entry, one chain of several) above
SMILES,IC50 (eIF1A-RPS10 interaction) [µM],"fluorescence ratio, eIF1A (eIF1A; 1Ai conc. 0.25 uM)","fluorescence ratio, eIF1A (eIF1A; 1Ai conc. 1 uM)","fluorescence ratio, eIF1A (eIF1A; 1Ai conc. 2 uM)","fluorescence ratio, eIF1A (eIF1A; 1Ai conc. 4 uM)","fluorescence ratio, eIF1A (eIF1A; 1Ai conc. 8 uM)","fluorescence ratio, eIF1A (eIF1A; 1Ai conc. 16 uM)","fluorescence ratio, eIF1A (eIF1A; 1Ai conc. 32 uM)","fluorescence ratio, eIF1A (eIF1A; 1Ai conc. 64 uM)","fluorescence ratio, eIF1A (eIF1A; 1Ai conc. 256 uM)",average CUG and GUG [1],average CUG and GUG relative to DMSO [1],CUG Average [1],GUG Average [1],"NUG (Final data, Fig. 1E) [1]","Reference vs IRF7 (Final data, Fig. 1E) ([2]; 20 µM)","GFP reporter ratio nsp1/gfp, avg (NSP1)","GFP reporter ratio nsp1/gfp, rep 1 (NSP1)","gfp signal, mean of duplicate wells (NSP1)","nsp1 signal, mean of duplicate wells (NSP1)",also measured
O=C(C=Cc1ccc(Cl)s1)Nc1cccc2ncccc12 [1Ai-4860],23,1.378 and 0.7463,1.444 and 0.7972,1.487 and 1.19,1.443 and 1.135,0.951 and 1.007,1.0935 and 0.6993,1.055 and 0.7323,1.155 and 0.874,1.071 and 0.7793,2.314,0.5131,3.6331,0.9953,0.513,1.848,0.4044,0.428,2781.5 and 4263,1059 and 1824.5,"fluorescence ratio, eIF1A (eIF1A; 1Ai conc. 0.5 uM): 1.41 and 0.8167; WT eIF1A IC50 (eIF1A; fluorescence binding): No binding; IC50 concentration (µM), WT eIF1A (eIF1A; summary table, fluorescence binding assay): No binding; CUG vs AUG (%) [1]: 3.6331%; GUG vs AUG (%) [1]: 0.9953%; GUG vs AUG data (%) ([1]; compound at 20uM): 1.48% and 1.00%; GUG vs AUG (%) Average ([1]; compound at 20uM): 1.24%; LONG (summary - All), normalized to DMSO ([2]; Long reporter, 20 µM): 0.47 and 0.69 and 0.42 and 0.61; SHORT (summary - All), normalized to DMSO ([2]; 20 µM): 0.84 and 1.62 and 0.77; Long: Normalized to average DMSO ([2]; data section, Long reporter, GFP-corrected, 20 µM, per experiment, includes values excluded as outliers): 0.471 and 0.6925 and 0.4245 and 0.6135; average ( long vs short ratio) ([2]; 20 µM): 0.541; GFP reporter ratio nsp1/gfp, rep 2 (NSP1): 0.3807; ratio (nsp1/gfp) (NSP1): 0.381 and 0.428"
Cc1ccc(C(=O)c2cc(O)c(O)c([N+](=O)[O-])c2)cc1 [1Ai-5576],24,0.7537 and 0.6505,0.6232 and 0.5058,0.6427 and 0.4189,0.6101 and 0.3891,0.5237 and 0.3506,0.4763 and 0.3127,0.3344 and 0.3594,0.3785 and 0.2952,0.2822 and 0.2602,6.465,1.433,9.471,3.46,1.433,1.896,0.4237,0.4237,2857,1210.5,"fluorescence ratio, eIF1A (eIF1A; 1Ai conc. 0.5 uM): 0.6672 and 0.6249; IC50 (eIF1A; [3]): 0.926 µM; IC50 (eIF1A; [4]): 0.9 µM; CUG vs AUG (%) [1]: 5.985%; GUG vs AUG (%) [1]: 2.005%; GUG vs AUG data (%) ([1]; compound at 20uM): 2.91% and 4.78% and 2.69%; GUG vs AUG (%) Average ([1]; compound at 20uM): 3.46%; LONG (summary - All), normalized to DMSO ([2]; Long reporter, 20 µM): 0.11 and 0.20 and 0.17; SHORT (summary - All), normalized to DMSO ([2]; 20 µM): 0.23 and 0.53 and 0.25 and 0.22; Long 5'UTR reporter luciferase activity, normalized to DMSO (=1), single replicates [2]: 0.1126 and 0.2 and 0.1668 and 0.166; average ( long vs short ratio) ([2]; 20 µM): 0.527; ratio (nsp1/gfp) (NSP1): 0.424"
CN(C)CC1CCn2cc(c3ccccc32)C2=C(C(=O)NC2=O)c2cn(c3ccccc23)CCO1 (stereo not drawn) [1Ai-5662],25,0.7967 and 0.9449,0.7317 and 0.9217,1.065 and 0.7855,1.002 and 0.7942,0.774 and 0.658,0.5642 and 0.6667,0.2341 and 0.4609,0.1593 and 0.2928,0.1171 and 0.07826,5.24,1.162,7.645,2.835,1.162,0.936,0.4084,0.4084,442,180.5,"fluorescence ratio, eIF1A (eIF1A; 1Ai conc. 0.5 uM, listed as 5662): 0.8569 and 0.971; IC50 (eIF1A; [3]): 20.9 µM; IC50 (eIF1A; [4]): 20.9 µM; GUG vs AUG data (%) ([1]; compound at 10uM): 1.99% and 4.83% and 1.69%; GUG vs AUG (%) Average ([1]; compound at 10uM): 2.83%; LONG (summary - All), normalized to DMSO ([2]; Long reporter, 10 µM): 1.11 and 0.84 and 0.46 and 0.50; SHORT (summary - All), normalized to DMSO ([2]; 10 µM): 0.67 and 0.80 and 0.62 and 0.63; average ( long vs short ratio) ([2]; 10 µM): 1.068; ratio (nsp1/gfp) (NSP1): 0.408"
CCOc1cc(C(=O)Nc2ccc(Cl)c(-c3nc4ccccc4[nH]3)c2)cc(OCC)c1OCC [1Ai-5677],15,0.8378 and 0.9597,0.9644 and 1.01,1.084 and 0.9877,1.028 and 1.008,0.9744 and 0.9518,1.11 and 0.9262,1.565 and 1.017,1.663 and 1.113,1.623 and 1.122,7.022,1.557,10.2182,3.825,1.557,1.223,0.572,0.572,1615.5,924,"fluorescence ratio, eIF1A (eIF1A; 1Ai conc. 0.5 uM): 0.7937 and 0.9656; IC50 (eIF1A; [4]): 24.8 µM; GUG vs AUG data (%) ([1]; compound at 20uM): 5.33% and 3.23% and 3.12% and 3.62%; GUG vs AUG (%) Average ([1]; compound at 20uM): 3.82%; LONG (summary - All), normalized to DMSO ([2]; Long reporter, 20 µM): 0.42 and 0.28 and 0.29 and 0.61; SHORT (summary - All), normalized to DMSO ([2]; 20 µM): 0.22 and 0.81 and 0.72 and 0.21; Long 5'UTR reporter luciferase activity, normalized to DMSO (=1), single replicates [2]: 0.4235 and 0.2817 and 0.2949 and 0.6069; average ( long vs short ratio) ([2]; 20 µM): 0.817; ratio (nsp1/gfp) (NSP1): 0.572"

# From article PMC12216609, “Inhibitors of eIF1A-ribosome interaction unveil uORF-dependent regulation of translation initiation and antitumor and antiviral effects” (The EMBO Journal, 2025)
